Measured values: patent publication US20080161248A1, “Methods and Compositions for Therapeutic Treatment” (priority 2006, published 2008)

Columns and labels:
mdr1a knockout mice = settings: cited from earlier work
[1] = tested on: LEW responder splenocytes with irradiated BN stimulators (lymphocyte proliferation); experiment: Mixed lymphocyte reaction (MLR) with spleen cells of treated Lewis rats; type: cell-based, rat; settings: LNS 0694 50, 150, 300 mg/kg i.p. 30 minutes prior to FK506 1 mg/kg i.v.
Experimental: Animals: 8-9 weeks-old Lewis and Brown Norway male rats were obtained from Charles River Laboratories. […] Treatment: Lewis rats were treated with different single doses of LNS 0694i.p. 30 minutes prior to single i.v. injections of tacrolimus at a concentration of 1 mg/kg as described in the table below. Spleens were collected at 4 hr after administration of FK506 for use in the in vitro mixed lymphocyte reaction (MLR) and Con A assays. […] Mixed lymphocyte reactions: A single cell suspension of the spleen of each rat on test (LEW, responder) was prepared with a Dounce homogenizer and wash-medium. The cell suspension was depleted of red blood cells (treatment with NH4CL/Tris buffer) and washed twice with wash medium before resuspending in complete medium (CM; […] A single cell suspension of splenocytes from five Brown Norway rats (BN, stimulators) was prepared with the same method. The BN splenocytes were pooled and irradiated with 1,500-2,000 rad (cesium source) before use. Varying numbers of responder cells were mixed with a constant number of stimulators (105) in 96-well, U-bottom cell culture plates to give a final responder:stimulator (R:S) ratio of 10:1,5: 1, 1:1 and 0.5:1 in 200 μl CM. […] The results of the MLR assays [thymidine incorporation as counts per minute (CPM)] are expressed as mean ±SD.

[2] = tested on: LEW responders activated with Con A (lymphocyte proliferation); experiment: Con A stimulated proliferation of spleen cells of treated Lewis rats; type: cell-based, rat; settings: LNS 0694 i.p. 30 minutes prior to FK506 1 mg/kg i.v.
Experimental: Animals: 8-9 weeks-old Lewis and Brown Norway male rats were obtained from Charles River Laboratories. […] Treatment: Lewis rats were treated with different single doses of LNS 0694i.p. 30 minutes prior to single i.v. injections of tacrolimus at a concentration of 1 mg/kg as described in the table below. Spleens were collected at 4 hr after administration of FK506 for use in the in vitro mixed lymphocyte reaction (MLR) and Con A assays. […] Varying numbers of responder cells were mixed with a constant number of stimulators (105) in 96-well, U-bottom cell culture plates to give a final responder:stimulator (R:S) ratio of 10:1,5: 1, 1:1 and 0.5:1 in 200 μl CM. Control wells for each cell suspension contained 10^5 responders alone in medium and 10^5 pooled, irradiated stimulators alone in medium (separate wells). For a positive proliferative response, each responder (10^5) was treated with 2.5 μg/ml Con A. […] Each well was pulsed with 1 μCi tritiated thymidine for 18±2 hours before automatic harvesting and analysis in a liquid scintillation counter.

[3] = tested on: mouse spleen cells, response to Con A; experiment: In vitro Con A assay on spleen cells; type: cell-based
Excerpt: (§1) Animals: 8-9 weeks-old Lewis and Brown Norway male rats were obtained from Charles River Laboratories. General procedures for animal care and housing was in accordance with the National Research Council (NRC) Guide for the Care and Use of Laboratory Animals (1996) and the Animal Welfare Standards incorporated in 9 CFR Part 3, 1991.
(§2) Spleens were collected for use in in vitro Con A and LPS assays.
Results: FIGS. 8 and 9 show the effect of quercetin and tacrolimus on response of mouse spleen cells to Con A at a high (1.6×10^6 cells/well) and low (8×10^5 cells/well) cell concentration, respectively.
Spleen cells were treated with Con A in the presence of vehicle, tacrolimus, quercetin or two different concentrations of tacrolimus (10^−8.2 and 10^−8.5 M) and increasing doses of quercetin at a high cell concentration (FIG. 14) or at a low cell concentration (FIG. 15). […] There was no significance difference between the effect of quercetin on tacrolimus induced cell suppression in vitro at the different concentrations used for quercetin.

[4] = tested on: mouse spleen cells, response to LPS; experiment: In vitro LPS assay on spleen cells; type: cell-based; settings: high ([…]10^6 cells/well) and low (8×10^5 cells/well) cell concentration
Excerpt: as §1, §2
FIGS. 10 and 11 show the effect of quercetin and tacrolimus on response of mouse spleen cells to LPS at a high (1.6×10^6 cells/well) and low (8×10^5 cells/well) cell concentration, respectively.

[5] = Pharmacokinetics of FK 506 i.v. with LNS 0694 i.p. in Lewis rats; type: in vivo, rat; settings: male Lewis rats; FK 506 1 mg/kg i.v.; LNS 0694 i.p. different doses
Experimental: as §1
Treatment: Lewis rats were treated as described in example 3. Subsets of 3 Lewis rats per group were used for blood sampling at each time point (Groups 2-5) at described in the table below.
Plasma Blood Sample Collection: Whole blood was collected from the retro-orbital sinus under 60:40 CO2:O2 anesthesia using EDTA as the anticoagulant. Sample collection was performed at 9 time points: 5, 15, and 30 min and 1, 2, 4, 6, 8, & 24 hr after administration of FK 506. Three samples were collected from each rat per group (Groups 2-5). The first 2 samples were collected under anesthesia, after which the animal regained consciousness and was retained until the next collection interval. […]
Drug levels were determined in collected whole blood samples using a bioanalytical method developed to detect parent drug levels.
Results: The pharmacokinetics parameters of FK 506 were determined in male Lewis rats after 1 mg/kg i.v. administration alone or in combination with i.p, administration of different doses of LNS 0694 (See FIG. 16).

[6] = Pharmacokinetics of FK506 i.v. with Quercetin i.p. in rats; type: in vivo, rat
Experimental: as §1, with “weeks-old rats, e.g.,” for “weeks-old”, “rats, can be used.” for “rats were obtained from Charles River Laboratories.”, “are” for “was”
Treatment: Rats are treated as i.v with FK506 and i.p. with Quercetin at two different concentrations, 500 mg/kg or 200 mg/kg. Subsets of 3 Lewis rats per group are used for blood sampling at each time point (Groups 2-5) at described in the table below.
Plasma Blood Sample Collection: Whole blood is collected from the retro-orbital sinus under 60:40 CO2:O2 anesthesia using EDTA as the anticoagulant. Sample collection is performed at 9 time points: 5, 15, and 30 min and 1, 2, 4, 6, 8, & 24 hr after administration of FK 506. Three samples were collected from each rat per group (Groups 2-5). The first 2 samples are collected under anesthesia, after which the animal regained consciousness and is retained until the next collection interval. The third/last sample is also collected under anesthesia, however the animal is euthanatized prior to anesthetic recovery.
Whole blood samples are placed on dry ice after collection and stored frozen at […] (±10° C.) until analysis.
Drug levels are determined in collected samples using bioanalytical methods developed to detect parent drug levels known in the art.

[7] = in vivo; cited from earlier work
[8] = higher 200 mg/kg quercetin dose i.p.

effect on calculated AUC (0-infinity) of FK 506 ([6]; Quercetin i.p. different doses, vs control group)	effect on Cmax of FK 506 [6, 8]	effect on Vd of FK 506 [6, 8]	effect on clearance of FK 506 [6, 8]	SMILES	incidence of fetal cleft palate (mdr1a knockout mice) [%]	effect on FK 506 inhibitory effect in MLR [1]	effect on FK 506 inhibitory effect, responders activated with Con A [2]	effect on tacrolimus induced cell suppression in vitro ([3]; Con A, tacrolimus 10^-8.2 and 10^-8.5 M, increasing doses of quercetin)	effect on response of spleen cells to Con A (proliferation) ([3]; high ([…]10^6 cells/well) and low (8×10^5 cells/well) cell concentration)	effect on response of spleen cells to LPS (proliferation) [4]	effect on peripheral bioavailability of FK506 [5]	effect on peripheral bioavailability of FK506 ([6]; Quercetin i.p. different doses)	serum half-life [7] [h]
–	–	–	–	CC[C@H](C)[C@H]1O[C@]2(C=C[C@@H]1C)C[C@@H]1C[C@@H](C/C=C(\C)[C@@H](O[C@H]3C[C@H](OC)[C@@H](O[C@H]4C[C@H](OC)[C@@H](O)[C@H](C)O4)[C@H](C)O3)[C@@H](C)/C=C/C=C3\CO[C@@H]4[C@H](O)C(C)=C[C@@H](C(=O)O1)[C@]34O)O2 [avermectin]	100	–	–	–	–	–	–	–	–
increases	increase	decrease	decrease	O=c1c(O)c(-c2ccc(O)c(O)c2)oc2cc(O)cc(O)c12 [Quercetin, quercetin]	–	increased FK 506 inhibitory effect in a dose-dependent manner	increased FK 506 inhibitory effect	did not impair	no significant effect	no significant effect	increases the peripheral bioavailability of FK506 in a dose dependent manner	increases the peripheral bioavailability of FK506 in a dose dependent manner	19 to 25
